Results as given in US20230013823A1, “INHIBITORS OF HUMAN IMMUNODEFICIENCY VIRUS REPLICATION” (VIV HEALTHCARE UK (No. 5) LIMITED, priority 2019, published 2023).

Legend:
[1] = Compound cytotoxicity, XTT-based colorimetric assay; type: cell-based; settings: human; uninfected MT2 cells, day 4, XTT
Method: Compound cytotoxicity and the corresponding CC50 values were determined using the same protocol as described in the antiviral assay except that uninfected cells were used. Cytotoxicity was assessed on day 4 in uninfected MT2 cells by using an XTT (2,3-bis[2-Methoxy-4-nitro-5-sulfophenyl]-2H-tetrazolium-5-carboxyanilide inner salt)-based colorimetric assay (Sigma-Aldrich, St Louis, Mo.).

[2] = test system: recombinant NL4-3 virus (Renilla luciferase in nef); assay: HIV cell culture assay (antiviral activity, luciferase readout in MT-2 cells); type: cell-based; settings: Renilla, NL43
Procedure, shortened: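 MT-2 cells were infected for 4-5 days with 293T-derived recombinant NL4-3 reporter virus in the presence of serially diluted compound. Antiviral activity was quantified as luciferase activity using a live-cell substrate. EC50 was derived from the median effect equation.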

Row | SMILES | CC50 at 4 days [1] [nM] | EC50 [2] [nM]
1 | Cn1nc(NS(C)(=O)=O)c2c(Cl)ccc(-n3c([C@H](Cc4cc(F)cc(F)c4)NC(=O)Cn4nc(C(F)F)c5c4C(F)(F)[C@@H]4C[C@H]54)nc4cc(-n5nccc5C(F)(F)F)ccc4c3=O)c21 (atropisomer, axis not shown; (P)) [Example 32, N—((S)-1-((3P)-3-(4-chloro-1-methyl-3-(methylsulfonamido)-1H-indazol-7-yl)-4-oxo-7-(5-(trifluoromethyl)-1H-pyrazol-1-yl)-3,4-dihydroquinazolin-2-yl)-2-(3,5-difluorophenyl)ethyl)-2-((3bS,4aR)-3-(difluoromethyl)-5,5-difluoro-3b,4,4a,5-tetrahydro-1H-cyclopropa[3,4]cyclopenta[1,2-c]pyrazol-1-yl)acetamide] | > 100 | 0.079
2 | Cn1nc(NS(C)(=O)=O)c2c(Cl)ccc(-n3c([C@H](Cc4cc(F)cc(F)c4)NC(=O)Cn4nc(C(F)F)c5c4C(F)(F)[C@@H]4C[C@H]54)nc4cc(-c5cnn(CC(F)F)c5)ccc4c3=O)c21 (atropisomer, axis not shown; (P)) [Example 34, N—((S)-1-((3P)-3-(4-chloro-1-methyl-3-(methylsulfonamido)-1H-indazol-7-yl)-7-(1-(2,2-difluoroethyl)-1H-pyrazol-4-yl)-4-oxo-3,4-dihydroquinazolin-2-yl)-2-(3,5-difluorophenyl)ethyl)-2-((3bS,4aR)-3-(difluoromethyl)-5,5-difluoro-3b,4,4a,5-tetrahydro-1H-cyclopropa[3,4]cyclopenta[1,2-c]pyrazol-1-yl)acetamide] | > 100 | 0.054
3 | Cn1nc(NS(C)(=O)=O)c2c(Cl)ccc(-n3c([C@H](Cc4cc(F)cc(F)c4)NC(=O)Cn4nc(C(F)F)c5c4C(F)(F)[C@H]4C[C@H]54)nc4cc(-c5cnn(C(F)F)c5)ccc4c3=O)c21 (atropisomer, axis not shown; (P)) [Example 35, N—((S)-1-((3P)-3-(4-chloro-1-methyl-3-(methylsulfonamido)-1H-indazol-7-yl)-7-(1-(difluoromethyl)-1H-pyrazol-4-yl)-4-oxo-3,4-dihydroquinazolin-2-yl)-2-(3,5-difluorophenyl)ethyl)-2-((3bS,4aR)-3-(difluoromethyl)-5,5-difluoro-3b,4,4a,5-tetrahydro-1H-cyclopropa[3,4]cyclopenta[1,2-c]pyrazol-1-yl)acetamide] | > 100 | 0.092
4 | Cc1nc2cc(-c3ccc4c(=O)n(-c5ccc(Cl)c6c(NS(C)(=O)=O)nn(C)c56)c([C@H](Cc5cc(F)cc(F)c5)NC(=O)Cn5nc(C(F)F)c6c5C(F)(F)[C@@H]5C[C@H]65)nc4c3)ccc2s1 (atropisomer, axis not shown; (P)) [Example 36, N—((S)-1-((3P)-3-(4-chloro-1-methyl-3-(methylsulfonamido)-1H-indazol-7-yl)-7-(2-methylbenzo[d]thiazol-5-yl)-4-oxo-3,4-dihydroquinazolin-2-yl)-2-(3,5-difluorophenyl)ethyl)-2-((3bS,4aR)-3-(difluoromethyl)-5,5-difluoro-3b,4,4a,5-tetrahydro-1H-cyclopropa[3,4]cyclopenta[1,2-c]pyrazol-1-yl)acetamide] | > 100 | 1.8
5 | Cn1nc(NS(C)(=O)=O)c2c(Cl)ccc(-n3c([C@H](Cc4cc(F)cc(F)c4)NC(=O)Cn4nc(C(F)F)c5c4C(F)(F)[C@@H]4C[C@H]54)nc4cc(-c5cc(C(C)(F)F)ccn5)ccc4c3=O)c21 (atropisomer, axis not shown; (P)) [Example 37, N—((S)-1-((3P)-3-(4-chloro-1-methyl-3-(methylsulfonamido)-1H-indazol-7-yl)-7-(4-(1,1-difluoroethyl)pyridin-2-yl)-4-oxo-3,4-dihydroquinazolin-2-yl)-2-(3,5-difluorophenyl)ethyl)-2-((3bS,4aR)-3-(difluoromethyl)-5,5-difluoro-3b,4,4a,5-tetrahydro-1H-cyclopropa[3,4]cyclopenta[1,2-c]pyrazol-1-yl)acetamide] | > 100 | 0.33
6 | Cn1nc(NS(C)(=O)=O)c2c(Cl)ccc(-n3c([C@H](Cc4cc(F)cc(F)c4)NC(=O)Cn4nc(C(F)F)c5c4C(F)(F)[C@@H]4C[C@H]54)nc4cc(-n5cc(C(F)(F)F)cn5)ccc4c3=O)c21 (atropisomer, axis not shown; (P)) [Example 38, N—((S)-1-((3P)-3-(4-chloro-1-methyl-3-(methylsulfonamido)-1H-indazol-7-yl)-4-oxo-7-(4-(trifluoromethyl)-1H-pyrazol-1-yl)-3,4-dihydroquinazolin-2-yl)-2-(3,5-difluorophenyl)ethyl)-2-((3bS,4aR)-3-(difluoromethyl)-5,5-difluoro-3b,4,4a,5-tetrahydro-1H-cyclopropa[3,4]cyclopenta[1,2-c]pyrazol-1-yl)acetamide] | > 100 | 0.17
7 | Cn1nc(NS(C)(=O)=O)c2c(Cl)ccc(-n3c([C@H](Cc4cc(F)cc(F)c4)NC(=O)Cn4nc(C(F)F)c5c4C(F)(F)[C@@H]4C[C@H]54)nc4cc(-c5cnn(C6CC6)c5)ccc4c3=O)c21 (atropisomer, axis not shown; (P)) [Example 40, N—((S)-1-((3P)-3-(4-chloro-1-methyl-3-(methylsulfonamido)-1H-indazol-7-yl)-7-(1-cyclopropyl-1H-pyrazol-4-yl)-4-oxo-3,4-dihydroquinazolin-2-yl)-2-(3,5-difluorophenyl)ethyl)-2-((3bS,4aR)-3-(difluoromethyl)-5,5-difluoro-3b,4,4a,5-tetrahydro-1H-cyclopropa[3,4]cyclopenta[1,2-c]pyrazol-1-yl)acetamide] | > 100 | 0.082
8 | Cn1nc(NS(C)(=O)=O)c2c(Cl)ccc(-n3c([C@H](Cc4cc(F)cc(F)c4)NC(=O)Cn4nc(C(F)F)c5c4C(F)(F)[C@@H]4C[C@H]54)nc4cc(-c5cnn(CC(F)(F)F)c5)ccc4c3=O)c21 (atropisomer, axis not shown; (P)) [Example 41, N—((S)-1-((3P)-3-(4-chloro-1-methyl-3-(methylsulfonamido)-1H-indazol-7-yl)-4-oxo-7-(1-(2,2,2-trifluoroethyl)-1H-pyrazol-4-yl)-3,4-dihydroquinazolin-2-yl)-2-(3,5-difluorophenyl)ethyl)-2-((3bS,4aR)-3-(difluoromethyl)-5,5-difluoro-3b,4,4a,5-tetrahydro-1H-cyclopropa[3,4]cyclopenta[1,2-c]pyrazol-1-yl)acetamide] | > 100 | 0.097
9 | Cn1nc(NS(C)(=O)=O)c2c(Cl)ccc(-n3c([C@H](Cc4cc(F)cc(F)c4)NC(=O)Cn4nc(C(F)F)c5c4C(F)(F)[C@@H]4C[C@H]54)nc4cc(-c5cnn(CCF)c5)ccc4c3=O)c21 (atropisomer, axis not shown; (P)) [Example 42, N—((S)-1-((3P)-3-(4-chloro-1-methyl-3-(methylsulfonamido)-1H-indazol-7-yl)-7-(1-(2-fluoroethyl)-1H-pyrazol-4-yl)-4-oxo-3,4-dihydroquinazolin-2-yl)-2-(3,5-difluorophenyl)ethyl)-2-((3bS,4aR)-3-(difluoromethyl)-5,5-difluoro-3b,4,4a,5-tetrahydro-1H-cyclopropa[3,4]cyclopenta[1,2-c]pyrazol-1-yl)acetamide] | > 100 | 0.068
10 | Cn1nc(NS(C)(=O)=O)c2c(Cl)ccc(-n3c([C@H](Cc4cc(F)cc(F)c4)NC(=O)Cn4nc(C(F)F)c5c4C(F)(F)[C@H]4C[C@@H]54)nc4cc(-c5ccnn5C5CC5)ccc4c3=O)c21 (atropisomer, axis not shown; (P)) [Example 43, N—((S)-1-((3P)-3-(4-chloro-1-methyl-3-(methylsulfonamido)-1H-indazol-7-yl)-7-(1-cyclopropyl-1H-pyrazol-5-yl)-4-oxo-3,4-dihydroquinazolin-2-yl)-2-(3,5-difluorophenyl)ethyl)-2-((3bS,4aR)-3-(difluoromethyl)-5,5-difluoro-3b,4,4a,5-tetrahydro-1H-cyclopropa[3,4]cyclopenta[1,2-c]pyrazol-1-yl)acetamide] | > 100 | 0.13
11 | Cn1nc(NS(C)(=O)=O)c2c(Cl)ccc(-n3c([C@H](Cc4cc(F)cc(F)c4)NC(=O)Cn4nc(C(F)F)c5c4C(F)(F)[C@@H]4C[C@H]54)nc4cc(-c5ccc6ncsc6c5)ccc4c3=O)c21 (atropisomer, axis not shown; (P)) [Example 44, N—((S)-1-(7-(benzo[d]thiazol-6-yl)-(3P)-3-(4-chloro-1-methyl-3-(methylsulfonamido)-1H-indazol-7-yl)-4-oxo-3,4-dihydroquinazolin-2-yl)-2-(3,5-difluorophenyl)ethyl)-2-((3bS,4aR)-3-(difluoromethyl)-5,5-difluoro-3b,4,4a,5-tetrahydro-1H-cyclopropa[3,4]cyclopenta[1,2-c]pyrazol-1-yl)acetamide] | > 100 | 0.61
12 | Cn1nc(NS(C)(=O)=O)c2c(Cl)ccc(-n3c([C@H](Cc4cc(F)cc(F)c4)NC(=O)Cn4nc(C(F)F)c5c4C(F)(F)[C@@H]4C[C@H]54)nc4cc(-c5ccc6scnc6c5)ccc4c3=O)c21 (atropisomer, axis not shown; (P)) [Example 45, N—((S)-1-(7-(benzo[d]thiazol-5-yl)-(3P)-3-(4-chloro-1-methyl-3-(methylsulfonamido)-1H-indazol-7-yl)-4-oxo-3,4-dihydroquinazolin-2-yl)-2-(3,5-difluorophenyl)ethyl)-2-((3bS,4aR)-3-(difluoromethyl)-5,5-difluoro-3b,4,4a,5-tetrahydro-1H-cyclopropa[3,4]cyclopenta[1,2-c]pyrazol-1-yl)acetamide] | > 100 | 0.44
